Structures can show the parent of a compound that is named as a salt.
What was measured:
[1] = test system: P. falciparum ATCC 50005 (chloroquine resistant); experiment: Growth inhibition of chloroquine-resistant P. falciparum in culture (96-well plates, microscopy and flow cytometry); format: cell-based; conditions: chloroquine-resistant strain
Experimental: Numerous experiments were conducted regarding dequalinium compounds and their ability to control the growth of chloroquine-resistant and sensitive strains of P. falciparum malaria parasites. Specifically, two commonly-known strains of P. falciparum were obtained from the American Type Culture Collection (ATCC), namely, ATCC 50005 (chloroquine resistant) and ATCC 50028 (chloroquine sensitive). The methods of culture and culture materials used in the experiments described herein are known in the art and discussed in Trager W. and Jensen, J., "Human Malaria Parasites in Continuous Culture" Science, […] (1976).
Assays for growth inhibition of P. falciparium were performed using the above parasites in standard 96-well test plates. All assays were performed in duplicate. The tests involved the use of a dequalinium chloride salt solution (from the Sigma Company of St. Louis, Mo.--product no. D3768) at concentration levels of 32, 16, 8, 4, 2, 1, and 0 nanograms/ml.
The parasites were permitted to incubate in the test media for 72 hours. At 24 hour intervals, new media and test substances were added, and an aliquot of the incubation mixture was removed for microscopic examination,In addition, the parasites were examined by flow cytometry using the techniques discussed in Makler, M. T., et al., "Thiazone Orange: A New Dye for Plasmodium Species Analysis" Cytometry, 8:568-570 (1987).
The entire experiment was terminated after three days. The data in FIG. 1 clearly illustrates the effectiveness of dequalinium salts against chloroquine-resistant parasites. The "Y" axis in FIG. 1 involves the percentage of erythrocytes in the test media which were infected with viable parasites. The "X" axis involves the concentration of dequalinium chloride used (in nanograms/ml.) At 0 nanograms/ml, parasite growth was extensive, with a % parasite infection of about 17 % after 72 hours.

[2] = s.c., mice; cited from earlier work
Rat Colon Tumor = conditions: rats, subcutaneous, intraperitoneal, or implant-osmotic pump, cited from earlier work

With `Cc1cc(N)c2ccccc2[n+]1CCCCCCCCCC[n+]1c(C)cc(N)c2ccccc21` [dequalinium chloride, 1,1'-(1,10-Decanediyl)bis-[4-amino-2-methylquinolinium] salt] the minimal effective concentration ([1]; Plasmodium falciparum, ATCC50005, read-out: concentration level at and above which parasite growth was strongly inhibited and no viable parasites remained, after 72 hours) was at least 0.001 µg/mL, the parasite growth ([1]; 1.0 nanogram/ml and above) was “strongly inhibited” and the viable parasites remaining ([1]; 1.0 nanogram/ml and above, after 72 hours) was “no viable parasites remained”. For the same molecule, the LD50 [2] was 70 mg/kg, the tumor growth inhibition (Rat Colon Tumor; 1.0 mg/kg) was “significant tumor growth inhibition” and the survival (Rat Colon Tumor; sublethal dose 1.0 mg/kg) was “all survived”.
